# Laboratory results: ChEMBL document CHEMBL4414624, “Terpenoids from the Stems of Fissistigma polyanthoides and Their Anti-Inflammatory Activity” (J Nat Prod, 2019)
# Assays:
# [1] = Cytotoxicity against human THP1-Blue-CD14 cells assessed as reduction in cell viability after 24 hrs by CellTiter-Blue based fluorescence analysis
# [2] = Cytotoxicity against LPS-stimulated human THP1-Blue-CD14 cells assessed as reduction in cell viability after 24 hrs by CellTiter-Blue based fluorescence analysis
# Homo sapiens = species on record: Homo sapiens; assay: (§1) Inhibition of LPS-induced NF-kappaB/AP-1 signalling cascade in human THP1-Blue-CD14 cells incubated for 24 hrs by quanti-blue SEAP assay; assay type: cell-based
# [3] = as §1; assay type: cell-based
SMILES,IC50 [3] [µM],IC50 [1] [µM],IC50 [2] [µM],inhibition (Homo sapiens)
CC(C)C1=CC[C@]2(C)[C@@H](O)CC[C@@](C)(O[C@@H]3O[C@H](CO)[C@@H](O)[C@H](O)[C@H]3OC(=O)/C=C/c3ccccc3)[C@H]2C1,20.8,39.1,29.5,Dose-dependent effect
C=C1CC[C@@H](C(C)C)/C=C/[C@@](C)(O[C@@H]2O[C@H](CO)[C@@H](O)[C@H](O)[C@H]2OC(=O)/C=C/c2ccccc2)CCC1=O,49,–,154,Dose-dependent effect
CC(C)[C@H]1CC/C2=C/C(=O)CC[C@](C)(O[C@@H]3O[C@H](CO)[C@@H](O)[C@H](O)[C@H]3OC(=O)/C=C/c3ccccc3)C[C@@H]21,30.7,133,46.4,Dose-dependent effect

# Continued, in another order:
IC50 [3] [µM],SMILES,IC50 [1] [µM],IC50 [2] [µM],inhibition (Homo sapiens)
28.4,C[C@@H]1CC[C@H](C(C)(C)O[C@@H]2O[C@H](CO)[C@@H](O)[C@H](O)[C@H]2OC(=O)/C=C/c2ccccc2)CC2=C1CC[C@H]2C,47.9,35.2,Dose-dependent effect
13.7,CC(C)[C@@H]1CC[C@@H](C)[C@@]23CC[C@](C)(O[C@@H]4O[C@H](CO)[C@@H](O)[C@H](O)[C@H]4OC(=O)/C=C/c4ccccc4)[C@@H]2[C@@H]13,29.2,21.6,Dose-dependent effect
